# Measurements from PubChem BioAssay AID248 (DTP/NCI, 2004).
# Several values for one entry are separate records, joined by “and”; a condition that tells them apart may be missing. Identical values can stand only once. Inconclusive results and toxic doses are left out.
# Tested on: L1210 leukemia ip in BDF1 mice, survival T/C
# Test: NCI In Vivo Anticancer Drug Screen. Data for tumor model L1210 Leukemia (intraperitoneal) in B6D2F1 (BDF1) mice
# Conditions: endpoint: mean survival time, higher = longer survival
# Procedure, shortened: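 Transplanted-tumor mice were given test agent; controls received vehicle only. Survival readings from the two groups were divided (treated over control).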
# [1] = dose: 100.0 mg/kg/injection, schedule: Q01DX001 (ip), vehicle: saline
# [2] = dose: 200.0 mg/kg/injection, schedule: Q01DX001 (ip), vehicle: saline
# [3] = dose: 400.0 mg/kg/injection, schedule: Q01DX001 (ip), vehicle: saline
# [4] = dose: 100.0 mg/kg/injection, schedule: Q01DX001 (ip), vehicle: saline with Tween-80
# [5] = dose: 200.0 mg/kg/injection, schedule: Q01DX001 (ip), vehicle: saline with Tween-80
# [6] = dose: 400.0 mg/kg/injection, schedule: Q01DX001 (ip), vehicle: saline with Tween-80
# [7] = dose: 100.0 mg/kg/injection, schedule: Q04DX003 (ip), vehicle: Klucel (hydroxypropylcellulose) (HPC)
# [8] = dose: 200.0 mg/kg/injection, schedule: Q04DX003 (ip), vehicle: Klucel (hydroxypropylcellulose) (HPC)
# [9] = dose: 400.0 mg/kg/injection, schedule: Q04DX003 (ip), vehicle: Klucel (hydroxypropylcellulose) (HPC)
# [10] = dose: 100.0 mg/kg/injection, schedule: Q01DX001 (ip), vehicle: Klucel (hydroxypropylcellulose) (HPC)
# [11] = dose: 200.0 mg/kg/injection, schedule: Q01DX001 (ip), vehicle: Klucel (hydroxypropylcellulose) (HPC)
smiles,measurement,setting,value
O=C(Nc1ccc(NC(=O)c2ccc(C3=NCCCN3)cc2)cc1)c1ccc(C2=NCCCN2)cc1,T/C,"dose: 0.93 mg/kg/injection, schedule: Q01DX Z (ip), vehicle: carboxymethylcellulose (CMC)",106 % of control
same,T/C,"dose: 1.87 mg/kg/injection, schedule: Q01DX Z (ip), vehicle: carboxymethylcellulose (CMC)",100 % of control
same,T/C,"dose: 3.75 mg/kg/injection, schedule: Q01DX Z (ip), vehicle: carboxymethylcellulose (CMC)",108 % of control and 118 % of control
same,T/C,"dose: 7.5 mg/kg/injection, schedule: Q01DX Z (ip), vehicle: carboxymethylcellulose (CMC)",166 % of control and 191 % of control
same,T/C,"dose: 15.0 mg/kg/injection, schedule: Q01DX Z (ip), vehicle: carboxymethylcellulose (CMC)",200 % of control and 204 % of control
same,T/C,"dose: 30.0 mg/kg/injection, schedule: Q01DX Z (ip), vehicle: carboxymethylcellulose (CMC)",101 % of control
same,T/C,"dose: 37.5 mg/kg/injection, schedule: Q01DX Z (oral), vehicle: carboxymethylcellulose (CMC)",101 % of control
same,T/C,"dose: 75.0 mg/kg/injection, schedule: Q01DX Z (oral), vehicle: carboxymethylcellulose (CMC)",110 % of control
same,T/C,"dose: 150.0 mg/kg/injection, schedule: Q01DX Z (oral), vehicle: carboxymethylcellulose (CMC)",101 % of control
same,T/C,"dose: 300.0 mg/kg/injection, schedule: Q01DX Z (oral), vehicle: carboxymethylcellulose (CMC)",106 % of control
COC(=O)CCC(C)=O,T/C,[1],102 % of control
same,T/C,[2],102 % of control
same,T/C,[3],100 % of control
Cc1cc(-c2ccc(NS(=O)(=O)c3ccccc3)c(C)c2)ccc1NS(=O)(=O)c1ccccc1,T/C,"dose: 25.0 mg/kg/injection, schedule: Q01DX001 (ip), vehicle: saline with Tween-80",95 % of control
same,T/C,"dose: 50.0 mg/kg/injection, schedule: Q01DX001 (ip), vehicle: saline with Tween-80",98 % of control
same,T/C,[4],92 % of control and 104 % of control
same,T/C,[5],89 % of control
COc1cccc2c1C(=O)c1c(O)c3c(c(O)c1C2=O)CC(O)(C(C)=O)CC3O (centres undefined),T/C,"dose: 0.16 mg/kg/injection, schedule: Q01DX009 (ip), vehicle: saline with Tween-80",103 % of control
same,T/C,"dose: 0.16 mg/kg/injection, schedule: Q03HX008 (ip), vehicle: saline with Tween-80",100 % of control
same,T/C,"dose: 0.32 mg/kg/injection, schedule: Q01DX009 (ip), vehicle: saline with Tween-80",90 % of control
same,T/C,"dose: 0.32 mg/kg/injection, schedule: Q03HX008 (ip), vehicle: saline with Tween-80",97 % of control
same,T/C,"dose: 0.63 mg/kg/injection, schedule: Q01DX009 (ip), vehicle: saline with Tween-80",99 % of control
same,T/C,"dose: 0.63 mg/kg/injection, schedule: Q03HX008 (ip), vehicle: saline with Tween-80",100 % of control
same,T/C,"dose: 1.25 mg/kg/injection, schedule: Q01DX009 (ip), vehicle: saline with Tween-80",94 % of control
same,T/C,"dose: 1.25 mg/kg/injection, schedule: Q03HX008 (ip), vehicle: saline with Tween-80",95 % of control
same,T/C,"dose: 2.5 mg/kg/injection, schedule: Q01DX009 (ip), vehicle: saline with Tween-80",91 % of control
same,T/C,"dose: 2.5 mg/kg/injection, schedule: Q03HX008 (ip), vehicle: saline with Tween-80",95 % of control
same,T/C,"dose: 5.0 mg/kg/injection, schedule: Q01DX001 (ip), vehicle: saline",102 % of control
same,T/C,"dose: 5.0 mg/kg/injection, schedule: Q01DX009 (ip), vehicle: saline with Tween-80",101 % of control
same,T/C,"dose: 5.0 mg/kg/injection, schedule: Q03HX008 (ip), vehicle: saline with Tween-80",97 % of control
same,T/C,"dose: 10.0 mg/kg/injection, schedule: Q01DX001 (ip), vehicle: saline",94 % of control
same,T/C,"dose: 10.0 mg/kg/injection, schedule: Q01DX009 (ip), vehicle: saline with Tween-80",100 % of control
same,T/C,"dose: 10.0 mg/kg/injection, schedule: Q03HX008 (ip), vehicle: saline with Tween-80",90 % of control
same,T/C,"dose: 20.0 mg/kg/injection, schedule: Q01DX001 (ip), vehicle: saline with Tween-80",100 % of control
same,T/C,"dose: 20.0 mg/kg/injection, schedule: Q01DX001 (ip), vehicle: saline",105 % of control
same,T/C,"dose: 20.0 mg/kg/injection, schedule: Q04DX003 (ip), vehicle: saline with Tween-80",96 % of control
same,T/C,"dose: 40.0 mg/kg/injection, schedule: Q01DX001 (ip), vehicle: saline with Tween-80",100 % of control
same,T/C,"dose: 40.0 mg/kg/injection, schedule: Q01DX001 (ip), vehicle: saline",105 % of control
same,T/C,"dose: 40.0 mg/kg/injection, schedule: Q04DX003 (ip), vehicle: saline with Tween-80",103 % of control
same,T/C,"dose: 80.0 mg/kg/injection, schedule: Q01DX001 (ip), vehicle: saline with Tween-80",102 % of control
same,T/C,"dose: 80.0 mg/kg/injection, schedule: Q04DX003 (ip), vehicle: saline with Tween-80",102 % of control
same,T/C,"dose: 160.0 mg/kg/injection, schedule: Q01DX001 (ip), vehicle: saline with Tween-80",105 % of control
same,T/C,"dose: 160.0 mg/kg/injection, schedule: Q04DX003 (ip), vehicle: saline with Tween-80",103 % of control
N/C(=N\O)c1cn(C2OC(CO)C(O)C2O)c2ncncc12 (centres undefined),T/C,"dose: 25.0 mg/kg/injection, schedule: Q01DX009 (ip), vehicle: saline",123 % of control
same,T/C,"dose: 100.0 mg/kg/injection, schedule: Q01DX005 (ip), vehicle: saline",120 % of control
CCCCCCCCOc1ccc(C=Nc2ccc(C(=O)OCC)cc2)cc1,T/C,"dose: 100.0 mg/kg/injection, schedule: Q01DX009 (ip), vehicle: Klucel (hydroxypropylcellulose) (HPC)",87 % of control
same,T/C,"dose: 200.0 mg/kg/injection, schedule: Q01DX009 (ip), vehicle: Klucel (hydroxypropylcellulose) (HPC)",92 % of control
same,T/C,"dose: 400.0 mg/kg/injection, schedule: Q01DX009 (ip), vehicle: Klucel (hydroxypropylcellulose) (HPC)",94 % of control
CC(C)(C)NC(=O)Nc1cccc(OC(=O)NC(C)(C)C)c1,T/C,"dose: 100.0 mg/kg/injection, schedule: Q04DX003 (ip), vehicle: saline with Tween-80",90 % of control
same,T/C,"dose: 200.0 mg/kg/injection, schedule: Q04DX003 (ip), vehicle: saline with Tween-80",87 % of control
same,T/C,"dose: 400.0 mg/kg/injection, schedule: Q04DX003 (ip), vehicle: saline with Tween-80",87 % of control
Brc1ccc2c(c1)CCC2,T/C,"dose: 50.0 mg/kg/injection, schedule: Q01DX001 (ip), vehicle: saline",93 % of control
same,T/C,[1],106 % of control and 88 % of control
same,T/C,[2],94 % of control and 95 % of control
same,T/C,[3],97 % of control and 98 % of control
O=c1cc(C23CC4CC(CC(C4)C2)C3)[nH]c(=S)[nH]1,T/C,[4],92 % of control
same,T/C,[5],108 % of control
same,T/C,[6],94 % of control
C=C(C)C1CCC2(CO)CCC3(C)C(CCC4C5(C)CCC(OC6CCCCO6)C(C)(C)C5CCC43C)C12 (centres undefined),T/C,"dose: 25.0 mg/kg/injection, schedule: Q04DX002 (ip), vehicle: saline with Tween-80",96 % of control
same,T/C,"dose: 50.0 mg/kg/injection, schedule: Q04DX002 (ip), vehicle: saline with Tween-80",93 % of control
NC(=O)C/C=C/CC(N)=O,T/C,[7],102 % of control
same,T/C,[8],102 % of control
same,T/C,[9],102 % of control
CCC(=N\N=C(N)N)/C(C)=N\N=C(N)N,T/C,"dose: 15.0 mg/kg/injection, schedule: Q01DX Z (ip), vehicle: saline",93 % of control
same,T/C,"dose: 30.0 mg/kg/injection, schedule: Q01DX Z (ip), vehicle: saline",98 % of control
same,T/C,"dose: 120.0 mg/kg/injection, schedule: Q01DX Z (ip), vehicle: saline",121 % of control
CC1(N(O)C(=O)NCCCl)CCCCC1,T/C,[4],109 % of control
same,T/C,[5],102 % of control
same,T/C,[6],93 % of control
[Br][Nd]([Br])[Br],T/C,"dose: 50.0 mg/kg/injection, schedule: Q04DX003 (ip), vehicle: saline",96 % of control
same,T/C,"dose: 100.0 mg/kg/injection, schedule: Q04DX003 (ip), vehicle: saline",91 % of control
same,T/C,"dose: 200.0 mg/kg/injection, schedule: Q04DX003 (ip), vehicle: saline",97 % of control
same,T/C,"dose: 400.0 mg/kg/injection, schedule: Q04DX003 (ip), vehicle: saline",86 % of control
COB(OC)C1CCCC1,T/C,[10],92 % of control
same,T/C,[11],95 % of control
c1ccc2cc3c(cc2c1)oc1cc2ccccc2cc13,T/C,[7],120 % of control
same,T/C,[8],101 % of control
same,T/C,[9],107 % of control
CC(=O)Nc1ccc(NC(=O)Nc2ccc(C)cc2)cc1,T/C,"dose: 50.0 mg/kg/injection, schedule: Q01DX009 (ip), vehicle: saline with Tween-80",90 % of control
same,T/C,"dose: 100.0 mg/kg/injection, schedule: Q01DX009 (ip), vehicle: saline with Tween-80",90 % of control
same,T/C,"dose: 200.0 mg/kg/injection, schedule: Q01DX009 (ip), vehicle: saline with Tween-80",90 % of control
CC(=O)Nc1ccc(OCCOc2cccc(C)c2)cc1,T/C,[10],103 % of control
same,T/C,[11],100 % of control
same,T/C,"dose: 400.0 mg/kg/injection, schedule: Q01DX001 (ip), vehicle: Klucel (hydroxypropylcellulose) (HPC)",105 % of control
